What was measured:
[1] = system: secretion of interferon-beta from THP1 cells; assay: IFN-β secretion in THP1 cell culture (5 h); assay type: cell-based; settings: Homo sapiens, THP-1, 5 h, 30 uM cGAMP = 100%; for activation at 30 µM: compound at 30 μM, read-out: % Effect at 30 μM relative to 2′3′-cGAMP
How it was run: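 Thawed THP1 cells (0.8×10^6/mL, RPMI with 0.5% FBS) exposed to compounds 1.5–30000 nM (0.3% DMSO) for 5 h at 37 °C. Supernatant IFN-β quantified by AlphaLISA. Percent effect normalised to 30 uM cGAMP and DMSO controls; EC50 from 4-parameter fit.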

full-length HAQ STING = target: T1, full-length HAQ STING (Homo sapiens, UniProt Q86WV6, G230A/H232R/R293Q/R71H); assay: 3H-cGAMP filtration binding assay (HAQ STING); settings: competition with tritiated cGAMP, HAQ STING membrane
T1 construct: AviTag (after GG linker) (C); HRV3C cleavage site (after GS linker) (C); HIS8 (C); made in house; host or cells: Trichoplusia ni (Hi-Five) insect cells infected with baculovirus (virus generated and amplified in Sf21 cells); used as a washed membrane preparation
How it was run: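 Hi-Five (T. ni) membranes overexpressing the STING variant (2.2 ug/ml working) preincubated with compound 60 min at RT in PBS, then [3H]cGAMP (8 nM working stock) added for 60 min at RT. Bound radioactivity captured on GF/B filters and counted by scintillation; EC50 from 4-parameter fit of control-normalized activity.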

full-length WT STING = target: T2, full-length WT STING (Homo sapiens, UniProt Q86WV6, H232R); assay: 3H-cGAMP filtration binding assay (WT STING); settings: competition with tritiated cGAMP, WT STING membrane
T2 construct: AviTag (after gg linker) (C); HRV3C cleavage site (after gs linker) (C); HIS8 (C); made in house; host or cells: Trichoplusia ni (Hi-Five) insect cells infected with baculovirus (virus generated and amplified in Sf21 cells); used as a washed membrane preparation
How it was run: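 Competitive filtration binding of [3H]cGAMP (16 nM working stock) to T. ni membranes overexpressing full-length WT human STING, 60 min at RT in PBS. Bound radioactivity counted after GF/B filtration; 10-point 1:3 titration, EC50 from 4-parameter fit after control normalisation.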

T1 sequence (Q86WV6 with tags, fused parts or gaps R71H/G230A/H232R/R293Q): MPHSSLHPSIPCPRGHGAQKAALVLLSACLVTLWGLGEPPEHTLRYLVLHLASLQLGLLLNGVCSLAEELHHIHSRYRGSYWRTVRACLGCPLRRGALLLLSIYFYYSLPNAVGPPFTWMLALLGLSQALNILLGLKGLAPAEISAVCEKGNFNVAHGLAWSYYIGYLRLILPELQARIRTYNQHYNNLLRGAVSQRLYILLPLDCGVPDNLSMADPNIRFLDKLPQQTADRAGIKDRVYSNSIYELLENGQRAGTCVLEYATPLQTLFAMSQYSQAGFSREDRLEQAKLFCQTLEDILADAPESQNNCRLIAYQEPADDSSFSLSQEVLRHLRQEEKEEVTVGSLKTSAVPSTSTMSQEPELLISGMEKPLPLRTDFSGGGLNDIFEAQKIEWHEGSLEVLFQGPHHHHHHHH
T2 sequence (Q86WV6 with tags, fused parts or gaps H232R): as the sequence (Q86WV6 with tags, fused parts or gaps R71H/G230A/H232R/R293Q) above, with H71R, A230G, Q293R counted along it

SMILES	EC50 (full-length HAQ STING)	EC50 (full-length WT STING)	activation at 30 µM [1]	activation at 3 µM ([1]; compound at 3 uM, read-out: % Effect relative to 2′3′-cGAMP (@ 3 uM))
COc1cc2sc(C(=O)C[C@H](C)C(=O)O)cc2cc1CCCOc1c(OC)cc2sc(C(=O)[C@@H]3C[C@H]3C(=O)O)cc2c1F [Example 84, trans-2-(5-(3-(2-((S)-3-carboxybutanoyl)-6-methoxybenzo[b]thiophen-5-yl)propoxy)-4-fluoro-6-methoxybenzo[b]thiophene-2-carbonyl)-cyclopropanecarboxylic acid]	50 nM	1060 nM	148%	–
COc1cc2sc(C(=O)[C@H]3C[C@@H]3C(=O)O)cc2c(F)c1OCCCOc1c(OC)cc2sc(C(=O)[C@@H]3C[C@H]3C(=O)O)cc2c1F [Example 87, trans-2-(5-(3-((2-((1R,2R)-2-carboxycyclopropanecarbony)-4-fluoro-6-methoxybenzo[b]thiophen-5-yl)oxy)propoxy)-4-fluoro-6-methoxybenzo[b]thiophene-2-carbonyl)cyclopropane carboxylic acid]	167 nM	1920 nM	120%	–
COc1cc2sc(C(=O)C[C@H](C)C(=O)O)cc2cc1OCCCOc1c(OC)cc2sc(C(=O)[C@@H]3C[C@H]3C(=O)O)cc2c1F [Example 89, trans-2-(5-(3-((2-((S)-3-carboxybutanoyl)-6-methoxybenzo[b]thiophen-5-yl)oxy)propoxy)-4-fluoro-6-methoxybenzo[b]thiophene-2-carbonyl)cyclopropane carboxylic acid]	2 nM	94 nM	112%	–
COc1cc2sc(C(=O)C[C@H](C)C(=O)O)cc2cc1OCCCCOc1c(OC)cc2sc(C(=O)C[C@H](C)C(=O)O)cc2c1F [Example 93, (S)-4-(5-(4-((2-((S)-3-carboxybutanoyl)-4-fluoro-6-methoxybenzo[b]thiophen-5-yl)oxy)butoxy)-6-methoxybenzo[b]thiophen-2-yl)-2-methyl-4-oxobutanoic acid]	1 nM	3 nM	87%	–
COc1cc2sc(C(=O)C[C@H](C)C(=O)O)cc2cc1OCCCCOc1cc2sc(C(=O)C[C@H](C)C(=O)O)cc2cc1OC [Example 94, (S)-4-(5-(4-((2-((S)-3-carboxybutanoyl)-5-methoxybenzo[b]thiophen-6-yl)oxy)butoxy)-6-methoxybenzo[b]thiophen-2-yl)-2-methyl-4-oxobutanoic acid]	6 nM	131 nM	100%	–
COc1cc2sc(C(=O)C[C@H](C)C(=O)O)cc2cc1CCCOc1c(OC)cc2sc(CC[C@H](C)C(=O)O)cc2c1F [Example 100, (S)-4-(5-(3-((2-((S)-3-carboxybutyl)-4-fluoro-6-methoxybenzo[b]thiophen-5-yl)oxy)propyl)-6-methoxybenzo[b]thiophen-2-yl)-2-methyl-4-oxobutanoic acid]	277 nM	2240 nM	–	33%
COc1cc2sc(C(=O)C[C@H](C)C(=O)O)cc2cc1OCCCCCOc1cc2cc(C(=O)C[C@H](C)C(=O)O)sc2cc1OC [Example 102, (2S,2′S)-4,4′-(5,5′-(pentane-1,5-diylbis(oxy))bis(6-methoxybenzo[b]thiophene-5,2-diyl))bis(2-methyl-4-oxobutanoic acid)]	15 nM	213 nM	69%	–
COc1cc2sc(C(=O)C[C@H](C)C(=O)O)cc2c(F)c1CCCOc1c(OC)cc2sc(CC[C@H](C)C(=O)O)cc2c1F [Example 105, (S)-4-(5-(3-((2-((S)-3-carboxybutyl)-4-fluoro-6-methoxybenzo[b]thiophen-5-yl)oxy)propyl)-4-fluoro-6-methoxybenzo[b]thiophen-2-yl)-2-methyl-4-oxobutanoic acid]	39 nM	311 nM	130%	–
COc1cc2sc(C(=O)C[C@H](C)C(=O)O)cc2c(F)c1CCCOc1c(OC)cc2sc(C(=O)[C@@H]3CC3C(=O)O)cc2c1F (stereo partly drawn) [Example 106, trans-2-(5-(3-(2-((S)-3-carboxybutanoyl)-4-fluoro-6-methoxybenzo[b]thiophen-5-yl)propoxy)-4-fluoro-6-methoxybenzo[b]thiophene-2-carbonyl)cyclopropane carboxylic acid]	10 nM	251 nM	74%	–
COc1cc2sc(C(=O)C[C@@H](C)C(=O)O)cc2cc1CCCOc1c(OC)cc2sc(C(=O)C[C@@H](C)C(=O)O)cc2c1F [Example 108, (R)-4-(5-(3-((2-((R)-3-carboxybutanoyl)-4-fluoro-6-methoxybenzo[b]thiophen-5-yl)oxy)propyl)-6-methoxybenzo[b]thiophen-2-yl)-2-methyl-4-oxobutanoic acid]	35 nM	244 nM	86%	–

Continued by falling EC50 (full-length HAQ STING), values first:

EC50 (full-length HAQ STING)	EC50 (full-length WT STING)	SMILES	activation at 30 µM [1]	activation at 3 µM ([1]; compound at 3 uM, read-out: % Effect relative to 2′3′-cGAMP (@ 3 uM))
467 nM	8900 nM	COc1cc2sc(C(=O)C[C@H](C)C(=O)O)cc2cc1OCCCCCOc1cc2sc(C(=O)C[C@H](C)C(=O)O)cc2cc1OC [Example 104, (S)-4-(5-((5-((2-((S)-3-carboxybutanoyl)-5-methoxybenzo[b]thiophen-6-yl)oxy)pentyl)oxy)-6-methoxybenzo [b]thiophen-2-yl)-2-methyl-4-oxobutanoic acid]	35%	–
237 nM	813 nM	COc1cc2cc(C(=O)C[C@H](C)C(=O)O)sc2cc1OCCCCOc1cc2sc(C(=O)C[C@H](C)C(=O)O)cc2cc1OC [Example 95, (2S,2′S)-4,4′-(6,6′-(butane-1.4-diylbis(oxy))bis(5-methoxybenzo[b]thiophene-6,2-diyl))bis(2-methyl-4-oxobutanoic acid)]	72%	–
58 nM	978 nM	COc1cc2cc(C(=O)C[C@H](C)C(=O)O)sc2cc1OCCCOc1c(OC)cc2sc(C(=O)[C@@H]3C[C@H]3C(=O)O)cc2c1F [Example 90, trans-2-(5-(3-((2-((S)-3-carboxybutanoyl)-5-methoxybenzo[b]thiophen-6-yl)oxy)propoxy)-4-fluoro-6-methoxybenzo[b]thiophene-2-carbonyl)cyclopropane carboxylic acid]	125%	–
22 nM	371 nM	COc1cc2sc(C(=O)C[C@H](C)C(=O)O)cc2cc1OCCCCCOc1c(OC)cc2sc(C(=O)C[C@H](C)C(=O)O)cc2c1F [Example 103, (S)-4-(5-((5-((2-((S)-3-carboxybutanoyl)-4-fluoro-6-methoxybenzo[b]thiophen-5-yl)oxy)pentyl)oxy)-6-methoxybenzo[b]thiophen-2-yl)-2-methyl-4-oxobutanoic acid]	79%	–
7 nM	30 nM	COc1cc2sc(C(=O)C[C@@H](C)C(=O)O)cc2cc1CCCOc1c(OC)cc2sc(C(=O)C[C@H](C)C(=O)O)cc2c1F [Example 91, (R)-4-(5-(3-((2-((S)-3-carboxybutanoyl)-4-fluoro-6-methoxybenzo[b]thiophen-5-yl)oxy)propyl)-6-methoxybenzo[b]thiophen-2-yl)-2-methyl-4-oxobutanoic acid]	109%	–
3 nM	7 nM	COc1cc2sc(C(=O)C[C@H](C)C(=O)O)cc2cc1OCCCCOc1cc2cc(C(=O)C[C@H](C)C(=O)O)sc2cc1OC [Example 92, (2S,2′S)-4,4′-(5,5′-(butane-1,4-diylbis(oxy))bis(6-methoxybenzo[b]thiophene-5,2-diyl))bis(2-methyl-4-oxobutanoic acid)]	62%	–
1 nM	9 nM	COc1cc2sc(C(=O)C[C@H](C)C(=O)O)cc2c(F)c1OCCCOc1c(OC)cc2sc(C(=O)[C@@H]3C[C@H]3C(=O)O)cc2c1F [Example 86, trans-2-(5-(3-((2-((S)-3-carboxybutanoyl)-4-fluoro-6-methoxybenzo[b]thiophen-5-yl)oxy)propoxy)-4-fluoro-6-methoxybenzo[b]thiophene-2-carbonyl)cyclopropane carboxylic acid]	131%	–
1 nM	2 nM	COc1cc2sc(CC[C@H](C)C(=O)O)cc2c(F)c1OCCCOc1c(OC)cc2sc(C(=O)C[C@H](C)C(=O)O)cc2c1F [Example 101, (S)-4-(5-(3-((2-((S)-3-carboxybutyl)-4-fluoro-6-methoxybenzo[b]thiophen-5-yl)oxy)propoxy)-4-fluoro-6-methoxybenzo[b]thiophen-2-yl)-2-methyl-4-oxobutanoic acid]	85%	–
1 nM	2 nM	COc1cc2sc(C(=O)C[C@H](C)C(=O)O)cc2c(F)c1CCCOc1c(OC)cc2sc(C(=O)[C@@H]3CCC3C(=O)O)cc2c1F (stereo partly drawn) [Example 107, trans-2-(5-(3-(2-((S)-3-carboxybutanoyl)-4-fluoro-6-methoxybenzo[b]thiophen-5-yl)propoxy)-4-fluoro-6-methoxybenzo[b]thiophene-2-carbonyl)cyclobutane carboxylic acid]	108%	–
